The structures appear in SMILES notation. Active and inactive are the calls of the source. For most assays here, no stated cut-off is given here; in the data, actives have a measured IC50 and inactives only a lower limit.

For assay [1], the target named is Cyclin-dependent kinase 5/CDK5 activator 1 (Homo sapiens, UniProt Q00535). Briefly: blockade of human CDK5 activity – biochemical, cherry-picked samples, set 2, dose response (AID 504545).
The next assay concerns the target Beta-galactosidase (Escherichia coli, UniProt Q8VNN2). In words: detection-enzyme interference by beta-gal modulators – biochemical, E. coli enzyme, set 3, artefact control for CCR6 antagonist project, dose response (AID 504712). The assay is classed as functional.
Assay [2] concerns the target 26S proteasome non-ATPase regulatory subunit 14 (Homo sapiens, UniProt O00487). In words: inhibition of proteasome subunit RPN11 – biochemical, fluorescence polarization, uHTS hits, confirmation (AID 602368). The assay is classed as functional. A general note: In fluorescence polarisation assays a small probe gives low polarisation when free and higher when bound to something large.

The target of the next assay is Prothrombin (Bos taurus, UniProt P00735). In words: thrombin protease inhibitors – biochemical, fluorescence polarization, uHTS hits, dose response (AID 602369). The format is functional.
Assay [3] concerns the target C-C chemokine receptor type 6 (Homo sapiens, UniProt P51684). Briefly: antagonism of CCR6 beta-arrestin recruitment – cell-based, luminescent beta-arrestin readout, dose response (AID 504728). The assay is classed as functional. (In general: Activated receptors often draw arrestin, which recruitment assays turn into a signal.)
For assay [4], the target named is 72 kDa type IV collagenase (Homo sapiens, UniProt P08253). In words: Dose Response validation of uHTS RPN11 inhibitor hits using a MMP-2 Fluorescence assay. The format is functional.
For assay [5], the target named is T1, Endoribonuclease toxin MazF (Escherichia coli K-12, UniProt P0AE70).
T1 sequence (P0AE70 whole entry): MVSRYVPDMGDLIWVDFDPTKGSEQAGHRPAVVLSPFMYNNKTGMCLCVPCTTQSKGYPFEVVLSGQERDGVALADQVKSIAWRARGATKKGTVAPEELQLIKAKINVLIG
In words: activation of MazEF endoribonuclease cleavage – biochemical, fluorescence, single-stranded RNA substrate, uHTS hits, dose response (AID 588481). The assay is classed as functional.

The target in assay [6] is T1, Endoribonuclease toxin MazF. Briefly: substrate-only fluorescence increase artefacts – biochemical, single-stranded RNase substrate, counter-screen for MazEF activator project, dose response (AID 588502). The format is functional. On the technique in general: A counterscreen serves to expose hits that act by an unwanted route or on another target.
In assay [7] the target is Voltage-gated N-type calcium channel alpha-1B subunit/Amyloid beta A4 precursor protein-binding family A member 1 (Homo sapiens, UniProt Q00975+Q02410). In words: disruptors of Mint-PDZ/N-type channel peptide interaction – biochemical, HTRF, set 2, SAR follow-up (AID 434980). The format is functional.
Another assay concerns HEK293. In words: cells. Conditions: Homo sapiens.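 Further: cells exposed to compound for 14 hours overnight before viability readout.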
The target in assay [8] is Nucleotide-binding oligomerization domain-containing protein 2 (Homo sapiens, UniProt Q9HC29). In words: PubChem AID 2334. The assay is classed as functional.
For another assay, the target named is Tumor necrosis factor (Homo sapiens, UniProt P01375). In words: analog potency on TNFa NF-kB signaling – cell-based, revised, SAR follow-up (AID 2337). The assay is classed as functional.
Assay [9] concerns the target T2, Nucleotide-binding oligomerization domain-containing protein 1 (Homo sapiens, UniProt Q9Y239).
T2 sequence (Q9Y239 whole entry): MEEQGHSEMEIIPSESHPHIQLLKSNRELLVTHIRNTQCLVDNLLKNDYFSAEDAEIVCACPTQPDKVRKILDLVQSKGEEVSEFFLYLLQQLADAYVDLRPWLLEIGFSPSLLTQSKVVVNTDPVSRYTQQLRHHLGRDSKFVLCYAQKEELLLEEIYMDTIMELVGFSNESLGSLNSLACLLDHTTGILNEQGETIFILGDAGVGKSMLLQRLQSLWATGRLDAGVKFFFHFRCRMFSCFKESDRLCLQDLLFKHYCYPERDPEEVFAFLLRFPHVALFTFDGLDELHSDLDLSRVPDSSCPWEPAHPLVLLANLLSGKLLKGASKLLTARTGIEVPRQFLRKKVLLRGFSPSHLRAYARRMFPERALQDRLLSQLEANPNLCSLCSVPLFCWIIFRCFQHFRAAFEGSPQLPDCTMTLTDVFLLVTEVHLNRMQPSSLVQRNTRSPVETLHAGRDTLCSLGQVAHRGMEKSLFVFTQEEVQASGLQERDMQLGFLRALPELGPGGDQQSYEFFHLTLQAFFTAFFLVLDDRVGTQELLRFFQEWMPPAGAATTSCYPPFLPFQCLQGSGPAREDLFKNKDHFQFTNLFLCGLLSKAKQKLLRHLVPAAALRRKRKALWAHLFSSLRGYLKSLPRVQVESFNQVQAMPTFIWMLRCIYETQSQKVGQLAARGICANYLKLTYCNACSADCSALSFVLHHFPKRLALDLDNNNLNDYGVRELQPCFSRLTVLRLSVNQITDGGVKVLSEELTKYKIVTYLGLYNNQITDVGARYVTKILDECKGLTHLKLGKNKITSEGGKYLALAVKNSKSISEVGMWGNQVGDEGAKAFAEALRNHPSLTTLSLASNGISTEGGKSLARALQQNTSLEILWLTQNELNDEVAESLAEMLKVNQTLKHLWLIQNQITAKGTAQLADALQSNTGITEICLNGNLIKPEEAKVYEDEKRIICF
In words: blockers of NOD1 pathway activity – revised, SAR follow-up (AID 2333). The assay is classed as functional.

Sequence of Voltage-gated N-type calcium channel alpha-1B subunit/Amyloid beta A4 precursor protein-binding family A member 1 (Q00975 whole entry): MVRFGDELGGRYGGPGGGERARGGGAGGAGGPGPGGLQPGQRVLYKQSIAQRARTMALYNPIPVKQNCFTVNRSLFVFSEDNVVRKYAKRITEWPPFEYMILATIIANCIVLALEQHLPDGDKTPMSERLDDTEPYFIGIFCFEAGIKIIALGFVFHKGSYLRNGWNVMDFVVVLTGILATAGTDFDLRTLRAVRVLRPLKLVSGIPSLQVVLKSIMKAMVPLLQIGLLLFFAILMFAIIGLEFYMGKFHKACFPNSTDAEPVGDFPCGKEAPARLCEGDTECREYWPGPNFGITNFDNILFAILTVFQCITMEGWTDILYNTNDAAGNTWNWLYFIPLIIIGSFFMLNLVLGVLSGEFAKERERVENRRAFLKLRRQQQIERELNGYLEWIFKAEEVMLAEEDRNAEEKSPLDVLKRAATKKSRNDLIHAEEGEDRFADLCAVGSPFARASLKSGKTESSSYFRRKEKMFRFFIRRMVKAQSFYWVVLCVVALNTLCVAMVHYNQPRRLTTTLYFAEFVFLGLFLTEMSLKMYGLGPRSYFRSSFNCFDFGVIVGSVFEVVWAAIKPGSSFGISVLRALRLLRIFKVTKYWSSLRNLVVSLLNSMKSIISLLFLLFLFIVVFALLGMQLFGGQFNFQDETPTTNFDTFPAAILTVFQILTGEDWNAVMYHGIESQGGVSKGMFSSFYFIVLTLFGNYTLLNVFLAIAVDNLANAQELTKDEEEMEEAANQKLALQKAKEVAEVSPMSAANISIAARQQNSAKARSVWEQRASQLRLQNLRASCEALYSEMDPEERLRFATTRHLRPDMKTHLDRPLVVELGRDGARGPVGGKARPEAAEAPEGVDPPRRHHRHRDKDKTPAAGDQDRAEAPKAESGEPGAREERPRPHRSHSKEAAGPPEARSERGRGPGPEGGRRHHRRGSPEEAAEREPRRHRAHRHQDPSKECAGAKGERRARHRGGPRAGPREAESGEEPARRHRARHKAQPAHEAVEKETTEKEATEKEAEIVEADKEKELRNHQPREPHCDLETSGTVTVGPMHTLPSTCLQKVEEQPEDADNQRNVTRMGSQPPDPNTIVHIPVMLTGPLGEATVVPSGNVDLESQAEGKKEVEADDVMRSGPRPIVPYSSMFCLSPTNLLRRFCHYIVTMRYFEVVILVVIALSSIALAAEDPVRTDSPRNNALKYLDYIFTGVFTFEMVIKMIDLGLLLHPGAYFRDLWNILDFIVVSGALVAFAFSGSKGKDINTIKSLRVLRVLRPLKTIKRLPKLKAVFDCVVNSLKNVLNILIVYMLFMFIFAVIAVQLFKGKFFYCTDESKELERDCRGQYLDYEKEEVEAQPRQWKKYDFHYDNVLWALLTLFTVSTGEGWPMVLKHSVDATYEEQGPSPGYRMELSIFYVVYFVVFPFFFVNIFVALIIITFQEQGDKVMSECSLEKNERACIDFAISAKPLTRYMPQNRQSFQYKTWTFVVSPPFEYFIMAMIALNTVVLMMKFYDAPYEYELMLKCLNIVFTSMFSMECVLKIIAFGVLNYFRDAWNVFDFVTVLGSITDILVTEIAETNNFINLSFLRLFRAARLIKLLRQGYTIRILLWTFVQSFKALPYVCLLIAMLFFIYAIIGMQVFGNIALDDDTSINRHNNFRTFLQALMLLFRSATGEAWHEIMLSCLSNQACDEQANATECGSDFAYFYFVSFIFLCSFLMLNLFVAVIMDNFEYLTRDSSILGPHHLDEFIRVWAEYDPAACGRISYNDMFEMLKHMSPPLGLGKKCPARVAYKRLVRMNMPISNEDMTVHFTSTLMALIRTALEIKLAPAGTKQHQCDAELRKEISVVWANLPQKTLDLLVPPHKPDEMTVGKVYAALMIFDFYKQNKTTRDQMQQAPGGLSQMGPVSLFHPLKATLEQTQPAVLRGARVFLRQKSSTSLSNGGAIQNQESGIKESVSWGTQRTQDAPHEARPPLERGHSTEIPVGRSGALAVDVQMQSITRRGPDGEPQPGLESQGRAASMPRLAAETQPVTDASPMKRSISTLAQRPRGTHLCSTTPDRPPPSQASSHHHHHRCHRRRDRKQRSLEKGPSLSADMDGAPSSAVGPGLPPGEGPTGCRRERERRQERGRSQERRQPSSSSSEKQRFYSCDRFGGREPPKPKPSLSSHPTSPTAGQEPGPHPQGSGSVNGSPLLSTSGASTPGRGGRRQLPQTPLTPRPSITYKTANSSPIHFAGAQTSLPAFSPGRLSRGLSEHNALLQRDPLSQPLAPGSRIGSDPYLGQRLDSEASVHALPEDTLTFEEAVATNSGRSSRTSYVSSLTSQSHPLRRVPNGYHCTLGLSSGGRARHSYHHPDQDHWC
Sequence of Voltage-gated N-type calcium channel alpha-1B subunit/Amyloid beta A4 precursor protein-binding family A member 1 (Q02410 whole entry): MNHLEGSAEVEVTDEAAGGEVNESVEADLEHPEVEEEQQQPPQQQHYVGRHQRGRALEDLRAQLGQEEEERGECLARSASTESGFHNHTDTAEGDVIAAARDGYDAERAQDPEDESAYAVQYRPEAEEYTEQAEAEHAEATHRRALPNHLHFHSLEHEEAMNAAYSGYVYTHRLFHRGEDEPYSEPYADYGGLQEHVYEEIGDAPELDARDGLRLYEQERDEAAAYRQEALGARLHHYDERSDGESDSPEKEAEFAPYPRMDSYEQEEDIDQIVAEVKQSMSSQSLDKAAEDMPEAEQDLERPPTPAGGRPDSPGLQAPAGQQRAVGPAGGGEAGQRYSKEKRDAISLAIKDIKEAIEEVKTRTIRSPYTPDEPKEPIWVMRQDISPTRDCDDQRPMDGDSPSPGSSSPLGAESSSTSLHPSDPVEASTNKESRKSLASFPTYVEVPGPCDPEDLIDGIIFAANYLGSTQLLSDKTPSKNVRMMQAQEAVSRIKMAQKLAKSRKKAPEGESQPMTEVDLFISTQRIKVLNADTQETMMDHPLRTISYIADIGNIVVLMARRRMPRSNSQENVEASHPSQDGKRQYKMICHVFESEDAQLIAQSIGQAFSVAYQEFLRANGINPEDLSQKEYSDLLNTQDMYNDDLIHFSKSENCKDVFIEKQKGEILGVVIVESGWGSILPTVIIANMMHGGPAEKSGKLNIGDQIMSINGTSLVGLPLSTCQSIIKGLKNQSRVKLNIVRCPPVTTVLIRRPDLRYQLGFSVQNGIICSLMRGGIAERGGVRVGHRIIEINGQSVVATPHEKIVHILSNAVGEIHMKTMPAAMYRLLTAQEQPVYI
Sequence of 72 kDa type IV collagenase (P08253 whole entry): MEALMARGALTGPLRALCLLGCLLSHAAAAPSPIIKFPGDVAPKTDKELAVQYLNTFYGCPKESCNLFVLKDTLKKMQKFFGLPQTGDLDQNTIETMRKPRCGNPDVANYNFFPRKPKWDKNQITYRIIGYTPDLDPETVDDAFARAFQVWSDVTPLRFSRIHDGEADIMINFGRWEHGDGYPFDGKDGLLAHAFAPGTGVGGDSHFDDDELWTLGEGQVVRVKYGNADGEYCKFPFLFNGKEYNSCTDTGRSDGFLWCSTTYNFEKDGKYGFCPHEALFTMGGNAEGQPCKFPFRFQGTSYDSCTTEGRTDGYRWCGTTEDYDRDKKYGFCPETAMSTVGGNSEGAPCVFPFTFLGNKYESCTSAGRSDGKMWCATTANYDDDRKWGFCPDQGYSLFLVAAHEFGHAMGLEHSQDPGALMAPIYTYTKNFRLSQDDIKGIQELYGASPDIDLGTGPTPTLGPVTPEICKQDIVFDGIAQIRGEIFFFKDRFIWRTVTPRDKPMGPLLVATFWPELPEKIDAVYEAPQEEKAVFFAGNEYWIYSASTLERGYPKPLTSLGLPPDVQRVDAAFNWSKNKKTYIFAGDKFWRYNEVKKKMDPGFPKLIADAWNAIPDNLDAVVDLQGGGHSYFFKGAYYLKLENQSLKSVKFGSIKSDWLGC
Sequence of Cyclin-dependent kinase 5/CDK5 activator 1 (Q00535 whole entry): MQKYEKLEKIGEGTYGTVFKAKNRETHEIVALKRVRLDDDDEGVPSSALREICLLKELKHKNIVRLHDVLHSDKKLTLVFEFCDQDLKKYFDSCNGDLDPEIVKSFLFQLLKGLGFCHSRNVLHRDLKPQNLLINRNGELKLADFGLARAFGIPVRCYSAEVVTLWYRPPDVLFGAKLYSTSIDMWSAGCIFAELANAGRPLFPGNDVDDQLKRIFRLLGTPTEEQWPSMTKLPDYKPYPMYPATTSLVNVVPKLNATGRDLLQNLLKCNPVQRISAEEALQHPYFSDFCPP
Sequence of Cyclin-dependent kinase 5/CDK5 activator 1 (Q15078 whole entry, further chain): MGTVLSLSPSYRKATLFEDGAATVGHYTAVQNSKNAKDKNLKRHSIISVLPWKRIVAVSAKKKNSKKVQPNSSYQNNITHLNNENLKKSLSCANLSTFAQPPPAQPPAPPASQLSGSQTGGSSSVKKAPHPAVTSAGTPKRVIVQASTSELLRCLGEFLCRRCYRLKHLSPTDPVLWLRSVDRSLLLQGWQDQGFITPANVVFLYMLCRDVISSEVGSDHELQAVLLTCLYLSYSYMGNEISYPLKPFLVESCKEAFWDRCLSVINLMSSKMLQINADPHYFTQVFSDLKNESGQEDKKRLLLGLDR
Sequence of 26S proteasome non-ATPase regulatory subunit 14 (O00487 whole entry): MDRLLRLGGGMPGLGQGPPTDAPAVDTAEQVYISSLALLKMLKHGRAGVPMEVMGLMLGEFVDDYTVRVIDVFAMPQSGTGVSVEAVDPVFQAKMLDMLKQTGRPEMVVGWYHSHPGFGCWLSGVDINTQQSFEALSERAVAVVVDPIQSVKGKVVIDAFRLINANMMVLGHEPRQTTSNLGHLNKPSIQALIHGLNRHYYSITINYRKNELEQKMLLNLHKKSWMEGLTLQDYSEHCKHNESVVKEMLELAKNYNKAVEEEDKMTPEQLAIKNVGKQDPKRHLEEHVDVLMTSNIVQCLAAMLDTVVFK
Sequence of Tumor necrosis factor (P01375 whole entry, the tested form may be a part): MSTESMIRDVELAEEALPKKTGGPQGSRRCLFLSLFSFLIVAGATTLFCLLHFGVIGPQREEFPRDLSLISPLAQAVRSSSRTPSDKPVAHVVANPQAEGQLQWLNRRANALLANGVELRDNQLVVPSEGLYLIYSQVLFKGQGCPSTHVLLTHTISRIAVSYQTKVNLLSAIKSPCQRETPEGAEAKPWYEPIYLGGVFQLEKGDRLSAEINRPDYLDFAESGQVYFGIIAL

Broadly, the AC50 is the concentration at which the activity in the assay is half-maximal. In the case of `CC(C)n1cnc2c(Nc3cccc(Cl)c3)nc(NCCCO)nc21`, the AC50 in assay [1] was 2.59 µM (active).

One may read the IC50 as the concentration that inhibits the measured activity by half. The EC50 is the midpoint of the concentration-response curve. For the compound `COc1ccccc1C(=O)/N=C(\N)Nc1nc2ccccc2o1`, the IC50 at Beta-galactosidase is > 66.6 µM (inactive); in [2], 38.3 µM (active); on Prothrombin it was 60.9 µM (active); in assay [3] it was > 66.6 µM (inactive); in assay [4], > 100 µM (inactive). For the same compound, the EC50 in assay [5] and in [6] was > 99 µM (inactive) each time.

As to `CN1CCCC1CCNC(=O)c1cc(-c2ccco2)nc2ccccc12` (stereo not drawn), in [7], the concentration for half-maximal inhibition (IC50) is 24.5 µM (active).

As to `O=C(Nc1sc2c(c1C(=O)O)CCCC2)C(=O)N1CCOCC1`, the IC50 (in the assay on HEK293; in [8]; at Tumor necrosis factor; in assay [9]) was > 20 µM (inactive) throughout.

(Values after ChEMBL document CHEMBL1201862, “PubChem BioAssay data set” (2004).)
